# Measured values published in patent publication US7723372B2, “Spiroindolinone derivatives” (Hoffman-La Roche Inc., priority 2008, dated 2010).
# Biological target: interaction between p53 and MDM2 proteins (recombinant GST-tagged MDM2, biotinylated p53 peptide) (Homo sapiens, UniProt Q00987)
# Test: HTRF assay of inhibition of the p53-MDM2 interaction
# Assay type: binding
# Conditions: 0.02% BSA
# Description: The ability of the compounds to inhibit the interaction between p53 and MDM2 proteins was measured by an HTRF (homogeneous time-resolved fluorescence) assay in which recombinant GST-tagged MDM2 binds to a peptide that resembles the MDM2-interacting region of p53 (Lane et al.), Binding of GST-MDM2 protein and p53-peptide (biotinylated on its N-terminal end) is registered by the FRET (fluorescence resonance energy transfer) between Europium (Eu)-labeled ant-GST antibody and streptavidin-conjugated Allophycocyanin (APC).
# […] Add 10 uL diluted compounds (1:5 dilution in reaction buffer) to each well, mix by shaking. Add 20 uL biotinylated p53 peptide (180 nM working solution) in reaction buffer to each well and mix on shaker. Incubate at 37° C. for 1 h. Add 20 uL streptavidin-APC and Eu-anti-GST antibody mixture (6 nM Eu-anti-GST and 60 nM streptavidin-APC working solution) in TBS buffer with 0.2% BSA, shake at room temperature for 30 minutes and read using a TRF-capable plate reader at 665 and 615 nm (Victor 5, Perkin ElmerWallac). If not specified, the reagents were purchased from Sigma Chemical Co.
# Chain of interaction between p53 and MDM2 proteins (recombinant GST-tagged MDM2, biotinylated p53 peptide) (Q00987 whole entry): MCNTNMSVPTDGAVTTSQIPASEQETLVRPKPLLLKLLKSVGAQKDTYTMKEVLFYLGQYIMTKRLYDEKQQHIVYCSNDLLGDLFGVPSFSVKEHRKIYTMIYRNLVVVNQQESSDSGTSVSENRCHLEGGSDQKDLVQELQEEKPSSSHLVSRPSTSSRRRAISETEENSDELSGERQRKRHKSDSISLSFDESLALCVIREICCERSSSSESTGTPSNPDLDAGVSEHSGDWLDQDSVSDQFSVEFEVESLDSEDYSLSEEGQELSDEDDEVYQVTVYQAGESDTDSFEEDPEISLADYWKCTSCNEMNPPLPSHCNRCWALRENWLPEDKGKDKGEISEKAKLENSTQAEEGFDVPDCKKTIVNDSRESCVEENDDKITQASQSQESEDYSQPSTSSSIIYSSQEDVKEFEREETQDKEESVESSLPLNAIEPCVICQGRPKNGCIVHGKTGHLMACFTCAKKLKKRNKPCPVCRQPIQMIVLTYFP
row,SMILES,IC50 [µM]
1,"Cc1ccc(F)cc1C1=C[C@@]2(C(=O)Nc3cc(Cl)ccc32)[C@H](c2cccc(Cl)c2)C[C@@H]1O (racemic) [Example 5, rac-(1R, 4S, 6S)-6′-chloro-6-(3-chlorophenyl)-3-(5-fluoro-2-methylphenyl)-4-hydroxyspiro[2-cyclohexene-1,3′-[3H]indol]-2′(1′H)-one]",1.6
2,"O=C1C[C@@H](c2cccc(Cl)c2)[C@@]2(C=C1c1ccc(F)cc1O)C(=O)Nc1cc(Cl)ccc12 (racemic) [Example 18, rac-(1R,6S)-6′-chloro-6-(3-chlorophenyl)-3-(4-fluoro-2-hydroxyphenyl)spiro[2-cyclohexene-1,3′-[3H]indole]-2′,4(1′H)-dione]",2.99

# Continued by falling IC50, values first:
row,IC50 [µM],SMILES
1,5.9,"C/C=C/C1=CC(=O)C[C@@H](c2cccc(Cl)c2)[C@]12C(=O)Nc1cc(Cl)ccc12 (racemic) [Example 10 (Compound B), rac-(1S,6S)-6′-chloro-6-(3-chlorophenyl)-2-(E)-(1-propenyl)spiro[2-cyclohexene-1,3′-[3H]indole]-2′,4(1′H)-dione]"
2,1.66,"O=C1C[C@@H](c2cccc(Cl)c2)[C@@]2(C=C1c1cc(F)ccc1O)C(=O)Nc1cc(Cl)ccc12 (racemic) [Example 17, rac-(1R,6S)-6′-chloro-6-(3-chlorophenyl)-3-(5-fluoro-2-hydroxyphenyl)spiro[2-cyclohexene-1,3′-[3H]indole]-2′,4(1′H)-dione]"
3,1.39,"C=Cc1ccccc1C1=CC(=O)C[C@@H](c2cccc(Cl)c2)[C@]12C(=O)Nc1cc(Cl)ccc12 (racemic) [Example 44 (Compound A), rac-(1R,6S)-6′-chloro-6-(3-chlorophenyl)-2-(2-ethylenephenyl)spiro[2-cyclohexene-1,3′-[3H]indole]-2′,4(1′H)-dione]"
